Laboratory results from patent publication US9028858B2 (Coloplast A/S, priority 2003, dated 2015).
Where two headings read alike, the source gives them in different places.

Experiments:
[1] = Experimental: The pH value of the latter solution was adjusted to 5.5 with 1 M NaOH. 10.0 mL aliquots of each of the two solutions were taken out and placed in 50 mL brown PE-containers.
The samples were β-irradiation at Risø National Laboratory. The samples were measured before irradiation, immediately after irradiation and after 2 and 4 weeks storage at 60° C. (triple determination).

[2] = for %-point H2O2 after storage / Appearance of catheter (0–5; 0 = perfect, 5 = unacceptable) / Appearance of swelling medium (0–5) / Loss of H2O2 (%/day) / pH after storage: 1 week, no PEG 2000
[3] = initial 0.2%-point H2O2, 60° C.
[4] = initial 0.2%-point H2O2, 80° C.
[5] = initial 0.4%-point H2O2, 60° C.
[6] = initial 0.4%-point H2O2, 80° C.

OO [Std H2O2, hydrogen peroxide]
Concentration of H2O2 (%-point) ([1]; Series I, catheter swelled in a solution of PVP, 0 kGy, 1 week at 60° C.): 0.97 %-point
Concentration of H2O2 (%-point) ([1]; Series I, catheter swelled in a solution of PVP, 0 kGy, 2 weeks at 60° C.): 0.87 %-point
Concentration of H2O2 (%-point) ([1]; Series I, catheter swelled in a solution of PVP, 0 kGy, after irradiation): 1.00 %-point
Concentration of H2O2 (%-point) ([1]; Series I, catheter swelled in a solution of PVP, 25 kGy, 1 week at 60° C.): 0.79 %-point
Concentration of H2O2 (%-point) ([1]; Series I, catheter swelled in a solution of PVP, 25 kGy, 2 weeks at 60° C.): 0.70 %-point
Concentration of H2O2 (%-point) ([1]; Series I, catheter swelled in a solution of PVP, 25 kGy, after irradiation): 0.85 %-point
Concentration of H2O2 (%-point) ([1]; Series I, catheter swelled in a solution of PVP, 50 kGy, 1 week at 60° C.): 0.58 %-point
Concentration of H2O2 (%-point) ([1]; Series I, catheter swelled in a solution of PVP, 50 kGy, 2 weeks at 60° C.): 0.46 %-point
Concentration of H2O2 (%-point) ([1]; Series I, catheter swelled in a solution of PVP, 50 kGy, after irradiation): 0.73 %-point
Concentration of H2O2 (%-point) ([1]; Series I, catheter swelled in a solution of PVP, 75 kGy, 1 week at 60° C.): 0.37 %-point
Concentration of H2O2 (%-point) ([1]; Series I, catheter swelled in a solution of PVP, 75 kGy, 2 weeks at 60° C.): 0.26 %-point
Concentration of H2O2 (%-point) ([1]; Series I, catheter swelled in a solution of PVP, 75 kGy, after irradiation): 0.57 %-point
Concentration of H2O2 (%-point) ([1]; Series II, catheter swelled in distilled water, 0 kGy, 1 week at 60° C.): 0.98 %-point
Concentration of H2O2 (%-point) ([1]; Series II, catheter swelled in distilled water, 0 kGy, 2 weeks at 60° C.): 0.92 %-point
Concentration of H2O2 (%-point) ([1]; Series II, catheter swelled in distilled water, 0 kGy, after irradiation): 1.00 %-point
Concentration of H2O2 (%-point) ([1]; Series II, catheter swelled in distilled water, 25 kGy, 1 week at 60° C.): 0.91 %-point
Concentration of H2O2 (%-point) ([1]; Series II, catheter swelled in distilled water, 25 kGy, 2 weeks at 60° C.): 0.85 %-point
Concentration of H2O2 (%-point) ([1]; Series II, catheter swelled in distilled water, 25 kGy, after irradiation): 0.93 %-point
Concentration of H2O2 (%-point) ([1]; Series II, catheter swelled in distilled water, 50 kGy, 1 week at 60° C.): 0.81 %-point
Concentration of H2O2 (%-point) ([1]; Series II, catheter swelled in distilled water, 50 kGy, 2 weeks at 60° C.): 0.75 %-point
Concentration of H2O2 (%-point) ([1]; Series II, catheter swelled in distilled water, 50 kGy, after irradiation): 0.87 %-point
Concentration of H2O2 (%-point) ([1]; Series II, catheter swelled in distilled water, 75 kGy, 1 week at 60° C.): 0.74 %-point
Concentration of H2O2 (%-point) ([1]; Series II, catheter swelled in distilled water, 75 kGy, 2 weeks at 60° C.): 0.66 %-point
Concentration of H2O2 (%-point) ([1]; Series II, catheter swelled in distilled water, 75 kGy, after irradiation): 0.81 %-point
Concentration of H2O2 (%-point) ([1]; Series III, H2O2-solution in distilled water, 0 kGy, 1 week at 60° C.): 0.87 %-point
Concentration of H2O2 (%-point) ([1]; Series III, H2O2-solution in distilled water, 0 kGy, 2 weeks at 60° C.): 0.76 %-point
Concentration of H2O2 (%-point) ([1]; Series III, H2O2-solution in distilled water, 0 kGy, after irradiation): 1.00 %-point
Concentration of H2O2 (%-point) ([1]; Series III, H2O2-solution in distilled water, 25 kGy, 1 week at 60° C.): 0.91 %-point
Concentration of H2O2 (%-point) ([1]; Series III, H2O2-solution in distilled water, 25 kGy, 2 weeks at 60° C.): 0.88 %-point
Concentration of H2O2 (%-point) ([1]; Series III, H2O2-solution in distilled water, 25 kGy, after irradiation): 0.95 %-point
Concentration of H2O2 (%-point) ([1]; Series III, H2O2-solution in distilled water, 50 kGy, 1 week at 60° C.): 0.84 %-point
Concentration of H2O2 (%-point) ([1]; Series III, H2O2-solution in distilled water, 50 kGy, 2 weeks at 60° C.): 0.85 %-point
Concentration of H2O2 (%-point) ([1]; Series III, H2O2-solution in distilled water, 50 kGy, after irradiation): 0.92 %-point
Concentration of H2O2 (%-point) ([1]; Series III, H2O2-solution in distilled water, 75 kGy, 1 week at 60° C.): 0.79 %-point
Concentration of H2O2 (%-point) ([1]; Series III, H2O2-solution in distilled water, 75 kGy, 2 weeks at 60° C.): 0.77 %-point
Concentration of H2O2 (%-point) ([1]; Series III, H2O2-solution in distilled water, 75 kGy, after irradiation): 0.89 %-point
H2O2 disappeared during storage ([2]; 1 week at 80° C., samples not containing PEG 2000, regardless of initial H2O2 concentration): 25-30%
%-point H2O2 after storage [2, 3]: 0.20 %-point
Appearance of catheter (0–5; 0 = perfect, 5 = unacceptable) [2, 3]: 0
Appearance of swelling medium (0–5) [2, 3]: 0
Loss of H2O2 (%/day) [2, 3]: 0.3 %/day
pH after storage [2, 3]: 5.64
%-point H2O2 after storage [2, 4]: 0.15 %-point
Appearance of catheter (0–5; 0 = perfect, 5 = unacceptable) [2, 4]: 0
Appearance of swelling medium (0–5) [2, 4]: 0
Loss of H2O2 (%/day) [2, 4]: 3.5 %/day
pH after storage [2, 4]: 5.63
%-point H2O2 after storage [2, 5]: 0.37 %-point
Appearance of catheter (0–5; 0 = perfect, 5 = unacceptable) [2, 5]: 0
Appearance of swelling medium (0–5) [2, 5]: 0
Loss of H2O2 (%/day) [2, 5]: 1.0 %/day
pH after storage [2, 5]: 5.63
%-point H2O2 after storage [2, 6]: 0.29 %-point
Appearance of catheter (0–5; 0 = perfect, 5 = unacceptable) [2, 6]: 0
Appearance of swelling medium (0–5) [2, 6]: 0
